Source: PMC8892522 (Proceedings of the National Academy of Sciences of the …, 2022)

What was measured:
[1] = target: T1, soluble epoxide hydrolase (sEH) (Homo sapiens, UniProt P34913); assay: cocrystal structure; format: binding
T1 sequence (P34913 230-555): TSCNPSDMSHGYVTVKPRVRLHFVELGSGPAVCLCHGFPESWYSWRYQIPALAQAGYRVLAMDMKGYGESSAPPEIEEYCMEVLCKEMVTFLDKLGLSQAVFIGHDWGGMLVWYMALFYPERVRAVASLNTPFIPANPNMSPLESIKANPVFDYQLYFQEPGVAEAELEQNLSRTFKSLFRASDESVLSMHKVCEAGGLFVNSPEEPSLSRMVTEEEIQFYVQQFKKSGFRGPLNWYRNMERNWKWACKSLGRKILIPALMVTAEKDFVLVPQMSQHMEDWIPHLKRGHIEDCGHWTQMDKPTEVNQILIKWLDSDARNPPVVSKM

[2] = target: T2, soluble epoxide hydrolase (sEH) (Mus musculus, UniProt P34914); assay: fluorescent substrate; format: biochemical
T2 sequence (P34914 1-554): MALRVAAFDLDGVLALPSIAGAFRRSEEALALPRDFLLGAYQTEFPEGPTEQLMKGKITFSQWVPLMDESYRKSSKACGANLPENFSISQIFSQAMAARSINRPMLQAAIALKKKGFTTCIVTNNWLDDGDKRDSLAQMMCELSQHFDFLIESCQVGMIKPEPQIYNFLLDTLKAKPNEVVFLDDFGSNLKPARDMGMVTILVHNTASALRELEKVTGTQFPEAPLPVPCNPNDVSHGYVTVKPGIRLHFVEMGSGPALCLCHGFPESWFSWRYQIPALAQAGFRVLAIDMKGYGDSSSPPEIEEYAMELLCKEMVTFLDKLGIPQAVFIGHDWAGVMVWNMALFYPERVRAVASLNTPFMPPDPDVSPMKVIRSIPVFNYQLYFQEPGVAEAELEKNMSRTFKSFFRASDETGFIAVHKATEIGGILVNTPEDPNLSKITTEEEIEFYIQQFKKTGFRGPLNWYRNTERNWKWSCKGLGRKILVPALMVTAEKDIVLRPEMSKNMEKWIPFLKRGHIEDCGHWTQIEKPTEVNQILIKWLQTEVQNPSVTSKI

Kd [1]: 1450 nM
IC50 [2]: 420 nM
SMILES: C=C(C)[C@H](CC=C(C)C)Cc1c(O)cc(OC)c2c1O[C@H](c1ccc(O)cc1O)CC2=O [kurarinone]
